Measurements: patent publication US7569724B2, “Carbamic acid compounds comprising an amide linkage as HDAC inhibitors” (Topotarget UK Limited, priority 2000, dated 2009)
Where two headings read alike, the source gives them in different places.

What was measured:
JURKAT human T-cell line = assay: Secondary assay: cell proliferation WST-1, Jurkat; format: cell-based; details: 48 h, read-out: Cell Proliferation Inhibition WST-1 (IC50 unless otherwise specified) Jurkat
[1] = test system: NHEK-Ad primary human adult keratinocyte line; assay: Secondary assay: cell proliferation WST-1, NHEK-Ad; format: cell-based; details: 48 h, read-out: Cell Proliferation Inhibition WST-1 (IC50 unless otherwise specified) NHEK-AD
Description: Compounds with HDAC inhibition activity, as determined using the primary assay, were subsequently evaluated using secondary cell-based assays. The following cell lines were used:
NHEK-Ad—Primary human adult keratinocyte line (Cambrex Corp., East Rutherford, N.J., USA).
Cells were plated in 96-well plates at 3-10×10^3 cells/well in 100 μL of culture medium. The following day, different concentrations of candidate compounds were added and the cells incubated at 37° C. for 48 h. Subsequently, 10 μL/well of WST-1 reagent was added and the cells reincubated for 1 hour. After the incubation time, absorbance was measured.
WST-1 is a tetrazolium salt which is cleaved to formazan dye by cellular enzymes. An expansion in the number of viable cells results in an increase in the overall activity of mitochondrial dehydrogenases in the sample. This augmentation in the enzyme activity leads to an increase in the amount of formazan dye formed, which directly correlates to the number of metabolically active cells in the culture. The formazan dye produced is quantified by a scanning multiwell spectrophotometer by measuring the absorbance of the dye solution at 450 nm wavelength (reference wavelength 690 nm).
Percent activity (% activity) in reducing the number of viable cells was calculated for each test compound as: % activity={(S^C−B)/(S^o−B)}×100 wherein S^C denotes signal measured in the presence of the compound being tested, S^o denotes signal measured in the absence of the compound being tested, and B denotes the background signal measured in blank wells containing medium only.
IC50 values were calculated using the software package Prism 3.0 (GraphPad software Inc., San Diego, Calif.), setting top value at 100 and bottom value at 0.

[2] = test system: K11 HPV E7 transformed human keratinocyte line; assay: Secondary assay: cell proliferation WST-1, K11; format: cell-based; details: read-out: Cell Proliferation Inhibition WST-1 (IC50 unless otherwise specified) K11
HeLa cells = assay: Secondary assay: cell proliferation WST-1, HeLa; format: cell-based; details: Homo sapiens, 48 h, read-out: Cell Proliferation Inhibition WST-1 (IC50 unless otherwise specified) HeLa
Summary of the method: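 Absorbance at 450 nm (reference 690 nm); % activity vs untreated after blank subtraction, IC50 fitted with top 100 and bottom 0.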

human HDAC1 = target: T1, human HDAC1 (Homo sapiens, UniProt Q13547); assay: Primary assay: deacetylase activity, recombinantly produced HDAC1; format: biochemical; details: recombinant HDAC1; read-out: HDAC Inhibition (IC50 unless otherwise specified) HDAC1
T1 construct: Full length human HDAC1 was cloned by PCR; Flag (C); His6 (from pAcHLT vector; purified on Ni-NTA) (N); made in house; host or cells: SF9 insect cells (baculovirus)
T1 sequence (Q13547 whole entry): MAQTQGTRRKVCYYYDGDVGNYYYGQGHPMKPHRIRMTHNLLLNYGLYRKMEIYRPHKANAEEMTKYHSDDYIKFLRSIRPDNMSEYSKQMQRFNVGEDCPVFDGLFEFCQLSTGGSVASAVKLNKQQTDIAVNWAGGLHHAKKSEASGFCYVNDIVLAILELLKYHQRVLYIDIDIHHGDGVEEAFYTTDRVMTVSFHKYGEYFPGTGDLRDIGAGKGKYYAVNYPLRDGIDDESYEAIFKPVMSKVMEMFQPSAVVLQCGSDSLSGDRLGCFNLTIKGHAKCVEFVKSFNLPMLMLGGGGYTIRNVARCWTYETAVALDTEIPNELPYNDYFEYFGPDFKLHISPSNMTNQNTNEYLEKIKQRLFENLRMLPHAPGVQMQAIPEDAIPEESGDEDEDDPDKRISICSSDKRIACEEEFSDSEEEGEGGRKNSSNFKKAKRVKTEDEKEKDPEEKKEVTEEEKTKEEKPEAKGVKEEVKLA
From the text: (§1) Briefly, this assay relies on the release of radioactive acetate from a radioactively labelled histone fragment by the action of HDAC enzyme. Test compounds, which inhibit HDAC, reduce the yield of radioactive acetate. Signal (e.g., scintillation counts) measured in the presence and absence of a test compound provide an indication of that compound's ability to inhibit HDAC activity. Decreased activity indicates increased inhibition by the test compound.
(§2) The histone fragment was an N-terminal sequence from histone H4, and it was labelled with radioactively labelled acetyl groups using tritiated acetylcoenzyme A (coA) in conjunction with an enzyme which is the histone acetyltransferase domain of the transcriptional coactivator p300. […] The acetylated peptide was then separated from free acetyl coA by size exclusion chromatography on Sephadex G-15 (Sigma G-15-120), using distilled H2O as the mobile phase.
(§3) After purification of the radiolabelled histone fragment, it was incubated with a source of HDAC (e.g., an extract of HeLa cells (a rich source of HDAC), recombinantly produced HDAC1 or HDAC2) and any released acetate was extracted into an organic phase and quantitatively determined using scintillation counting. By including a test compound with the source of HDAC, that compound's ability to inhibit the HDAC was determined.
Full length human HDAC1 was cloned by PCR using a λgt11 Jurkat cDNA library (Clontech-HL5012b). The amplified fragment was inserted into the EcoRI-Sall sites of pFlag-CTC vector (Sigma-E5394), in frame with the Flag tag. A second PCR was carried out in order to amplify a fragment containing the HDAC1 sequence fused to the Flag tag.
(§4) Amplification of recombinant viruses was performed according to the Pharmingen Instruction Manual.
(§5) For protein production, 2×10^7 cells were infected with the appropriate recombinant virus for 3 days. Cells were then harvested and spun at 3,000 rpm for 5 minutes. They were then washed twice in PBS and resuspended in 2 pellet volumes of lysis buffer (25 mM HEPES pH 7.9, 0.1 mM EDTA, 400 mM KCl, 10% glycerol, 0.1% NP-40, 1 mM AEBSF). Resuspended cells were frozen on dry ice and thawed at 37° C. 3 times and centrifuged for 10 minutes at 14,000 rpm. […] Incubation was carried out at 4° C. for 1 hour on a rotating wheel. The slurry was then centrifuged at 500 g for 5 minutes. Beads were washed twice in 1 ml of wash buffer (25 mM HEPES pH7.9, 0.1 mM EDTA, 150 mM KCl, 10% glycerol, 0.1% NP-40, 1 mM AEBSF). Protein was eluted 3 times in 300 μl elution buffer (25 mM HEPES pH 7.9, 0.1 mM EDTA, 250 mM KCl, 10% glycerol, 0.1% NP-40, 1 mM AEBSF) containing increasing concentrations of imidazole: 0.2 M, 0.5 M and 1 M. Each elution was performed for 5 minutes at room temperature. Eluted protein was kept in 50% glycerol at −70° C.
(§6) A source of HDAC (e.g., 2 μL of crude HeLa extract, 5 μL of HDAC1 or HDAC2; in elution buffer, as above) was incubated with 3 μL of radioactively labelled peptide along with appropriate dilutions of candidate compounds (1.5 μL) in a total volume of 150 μL of buffer (20 mM Tris pH 7.4, 10% glycerol). The reaction was carried out at 37° C. for one hour, after which the reaction was stopped by adding 20 μL of 1 M HCl/0.4 M sodium acetate. […] Radioactivity was measured using a Tri-Carb 2100TR Liquid Scintillation Analyzer (Packard).
(§7) Percent activity (% activity) for each test compound was calculated as: % activity={(S^C−B)/(S^o−B)}×100 wherein S^C denotes signal measured in the presence of enzyme and the compound being tested, S^o denotes signal measured in the presence of enzyme but in the absence of the compound being tested, and B denotes the background signal measured in the absence of both enzyme and compound being tested.

HDAC (HeLa cell extract) = assay: Primary assay: deacetylase activity, HeLa cell extract as source of HDAC; format: biochemical, human
Summary of the method: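 Crude HeLa extract (freeze-thaw in 60 mM TrisCl pH 8.0, 450 mM NaCl, 30% glycerol) was incubated 1 h at 37° C with a [³H]acetyl-labelled histone H4 N-terminal peptide in 20 mM Tris pH 7.4, 10% glycerol.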

human HDAC2 = target: T2, human HDAC2 (Homo sapiens, UniProt Q92769); assay: Primary assay: deacetylase activity, recombinantly produced HDAC2; format: biochemical; details: recombinant HDAC2; read-out: HDAC Inhibition (IC50 unless otherwise specified) HDAC2
T2 construct: Full length human HDAC2 was subcloned; Flag (C); His6 (from pAcHLT-A vector; purified on Ni-NTA) (N); made in house; host or cells: SF9 insect cells (baculovirus)
T2 sequence (Q92769 whole entry): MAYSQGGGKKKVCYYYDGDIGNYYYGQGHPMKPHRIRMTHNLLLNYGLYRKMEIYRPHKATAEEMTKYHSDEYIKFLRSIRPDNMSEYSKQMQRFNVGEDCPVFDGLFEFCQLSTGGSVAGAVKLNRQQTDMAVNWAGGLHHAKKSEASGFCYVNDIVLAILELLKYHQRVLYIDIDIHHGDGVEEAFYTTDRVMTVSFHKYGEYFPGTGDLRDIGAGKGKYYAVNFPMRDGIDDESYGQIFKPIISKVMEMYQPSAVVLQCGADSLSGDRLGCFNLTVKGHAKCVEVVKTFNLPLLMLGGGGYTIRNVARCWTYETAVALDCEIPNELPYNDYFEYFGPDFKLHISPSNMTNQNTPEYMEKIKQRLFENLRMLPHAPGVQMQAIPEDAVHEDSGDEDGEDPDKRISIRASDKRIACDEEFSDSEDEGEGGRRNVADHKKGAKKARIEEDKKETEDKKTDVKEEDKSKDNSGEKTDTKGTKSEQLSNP
From the text: as §1, §2, §3, §4, §5, §6, §7

[3] = Homo sapiens, Keratinocyte, 48 h
[4] = Homo sapiens, Keratinocyte, NHEK-AD
[5] = HeLa cell extract, read-out: HDAC Inhibition (IC50 unless otherwise specified) HeLa

Row | IC50 (human HDAC1) [nM] | IC50 (human HDAC2) [nM] | melting point [°C] | SMILES | IC50 (JURKAT human T-cell line; Homo sapiens) [nM] | IC50 (HeLa cells) [nM] | IC50 [2, 3] [nM] | IC50 [1, 4] [nM] | IC50 (HDAC (HeLa cell extract); [5]) [nM] | further results
1 | – | – | – | Nc1ccccc1NC(=O)c1ccc(CNC(=O)OCc2cccnc2)cc1 [MS-275, reference compound] | – | – | – | – | – | IC50 (JURKAT human T-cell line): 365 nM; IC50 ([1]; NHEK-AD): 3100 nM; IC50 ([2]; K11, 48 h): 9160 nM
2 | – | – | – | O=C(/C=C/C#Cc1cccc(NS(=O)(=O)c2ccccc2)c1)NO [Oxamflatin, (2E)-5-[3-[(phenylsulfonyl)amino]phenyl]-pent-2-en-4-ynohydroxamic acid, reference compound] | 260 | 1100 | 4560 | – | – | IC50 ([1]; Homo sapiens, Keratinocyte): 3530 nM
3 | 25 | 56 | 222 to 224 | O=C(/C=C/C=C/c1ccc(-c2ccccc2)cc1)NCCCCCC(=O)NO [PX105848, (2E,4E)-5-Biphenyl-4-yl-penta-2,4-dienoic acid (5-hydroxycarbamoyl-pentyl)-amide] | – | 4300 | – | – | 22 | IC50 (HDAC (HeLa cell extract); comparative tables, HeLa cell extract, read-out: HeLa IC50): 22 nM
4 | 50 | 63 | 158 to 160 | O=C(/C=C\C=C\c1ccc(Cl)cc1)NCCCCCC(=O)NO [PX105849, (2Z,4E)-5-(4-Chlorophenyl)penta-2,4-dienoic acid (5-hydroxycarbamoylpentyl)-amide] | – | 5300 | – | – | 29 | –
5 | 25 | 75 | 164 to 168 | O=C(/C=C/C=C/c1ccc(Cl)cc1)NCCCCCC(=O)NO [PX105850, (2E,4E)-5-(4-Chlorophenyl)penta-2,4-dienoic acid (5-hydroxycarbamoylpentyl)-amide] | – | 6300 | – | – | 28 | –
6 | 12 | 50 | 160 to 162 | O=C(/C=C/C=C/c1ccccc1)NCCCCCCCC(=O)NO [PX105851] | – | 4200 | – | – | 18 | IC50 (HDAC (HeLa cell extract); comparative tables, HeLa cell extract, no unit in cell, read-out: HeLa IC50): 18 nM
7 | – | – | – | O=C(/C=C/c1ccc2ccccc2c1)NCCCCCC(=O)NO [PX116232, E-N-(5-Hydroxycarbamoylpentyl)-3-naphthalen-2-yl-acrylamide] | 7300 | 18300 | 2700 | 1700 | 10 | –
8 | – | – | – | O=C(C=C1c2ccccc2-c2ccccc21)NCCCCCC(=O)NO [PX117456, 6-(2-Fluoren-9-ylideneacetylamino)hexanoic acid hydroxyamide] | 180 | 650 | 740 | – | – | IC50 ([1]; Homo sapiens, Keratinocyte): 250 nM; IC50 (HDAC (HeLa cell extract); read-out: HDAC Inhibition (IC50 unless otherwise specified) HeLa): 3 nM
9 | – | – | – | CC(/C=C/C(=O)NO)=C\[C@@H](C)C(=O)c1ccc(N(C)C)cc1 [TSA, trichostatin A, reference compound] | 42 | 350 | 380 | – | – | IC50 ([1]; Homo sapiens, Keratinocyte): 200 nM

Row | SMILES | IC50 (human HDAC1) [nM] | IC50 (human HDAC2) [nM] | melting point [°C] | IC50 (JURKAT human T-cell line; Homo sapiens) [nM] | IC50 (HeLa cells) [nM] | IC50 [2, 3] [nM] | IC50 [1, 4] [nM] | IC50 (HDAC (HeLa cell extract); [5]) [nM] | further results
10 | O=C(/C=C/C=C/c1ccccc1)NCCCCCC(=O)NO [PX105553, 4-(2E)(4E)-5-Phenyl-penta-2,4-dienoic acid (5-hydroxycarbamoyl-pentyl)-amide] | 38 | 47 | – | 3700 | 5700 | 7500 | 2400 | 18 | –
11 | O=C(/C=C/c1c[nH]c2ccccc12)NCCCCCC(=O)NO [PX116220, N-(5-Hydroxycarbamoyl-pentyl)-3-(1-N-indol-3-yl)-acrylamide] | – | – | 92 to 94 | 4500 | 3700 | 9500 | 2400 | 6.3 | –
12 | O=C(CCCCCCC(=O)Nc1ccc2ccccc2c1)NO [PX116223, Octanedioic acid hydroxyamide naphthalen-2-ylamide] | – | – | 142.5 to 144 | 220 | < 310 | 1700 | 1300 | < 12.5 | –
